Laboratory results as given in patent US7462629B2, “Immunosuppressant compounds and compositions” (IRM LLC, priority 2003, dated 2008).

Tests used:
blood lymphocytes = experiment: Measurement of circulating lymphocytes (blood lymphocyte depletion); assay type: in vivo, Mice (C57bl/6 male); settings: Mus musculus, mice, oral gavage, blood collected 6 and 24 hours after administration, read-out: ED50 (effective dose for 50% of blood lymphocyte depletion)
Description: C. In Vivo: Screening Assays for Measurement of Blood Lymphocyte Depletion and Assessment of Heart Effect
Measurement of circulating lymphocytes: Compounds are dissolved in DMSO and diluted to obtain a final concentration of 4% DMSO (v/v, final concentration) and then further diluted in a constant volume of Tween80 25%/H2O, v/v. Tween80 25%/H2O (200 μl), 4% DMSO, and FTY720 (10 μg) are included as negative and positive controls, respectively. Mice (C57bl/6 male, 6-10 week-old) are administered 250-300 μL of compound solution orally by gavages under short isoflurane anesthesia.
Blood is collected from the retro-orbital sinus 6 and 24 hours after drug administration under short isoflurane anesthesia. Whole blood samples are subjected to hematology analysis. Peripheral lymphocyte counts are determined using an automated analyzer. Subpopulations of peripheral blood lymphocytes are stained by fluorochrome-conjugated specific antibodies and analyzed using a fluorescent activating cell sorter (Facscalibur). Two mice are used to assess the lymphocyte depletion activity of each compound screened. The result is an ED50, which is defined as the effective dose required displaying 50% of blood lymphocyte depletion.

human EDG-1 = molecular target: T1, human EDG-1 (Homo sapiens, UniProt P21453); experiment: EDG-1 (S1P1) GTP [γ-35S] binding assay, membranes from CHO cells; assay type: biochemical; settings: CHO membranes expressing human EDG-1
T1 construct: expressed in transfected cells
T1 sequence (P21453 whole entry): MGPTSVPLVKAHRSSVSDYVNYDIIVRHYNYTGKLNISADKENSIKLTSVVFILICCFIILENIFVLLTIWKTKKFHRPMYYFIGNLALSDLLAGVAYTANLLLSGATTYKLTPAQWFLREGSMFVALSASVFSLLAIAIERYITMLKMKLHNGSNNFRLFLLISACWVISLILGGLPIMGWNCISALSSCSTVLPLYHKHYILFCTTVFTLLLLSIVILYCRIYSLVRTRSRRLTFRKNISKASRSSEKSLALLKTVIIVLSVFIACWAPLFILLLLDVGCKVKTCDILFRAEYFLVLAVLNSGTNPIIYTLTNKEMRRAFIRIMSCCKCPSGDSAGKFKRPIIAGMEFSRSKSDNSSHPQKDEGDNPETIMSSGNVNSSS
Description: (§1) A. In Vitro: GPCR Activation Assay Measuring GTP [γ-^35S] Binding to Membranes Prepared from CHO Cells Expressing Human EDG Receptors
EDG-1 (S1P1) GTP [γ-^35S] binding assay: Homogenized membranes are prepared from CHO cell clones stably expressing a human EDG-1 N-terminal c-myc tag. Cells are grown in suspension in two 850 cm^2 roller bottles for three or fours days before harvesting. The cells are centrifuged down, washed once with cold PBS, and resuspended in ≦20 ml of Buffer A (20 mM HEPES, pH 7.4, 10 mM EDTA, EDTA-free complete protease inhibitor cocktail [1 tablet/25 ml]). The cell suspension is homogenized on ice, using a Polytron homogenizer at 30000 rpm at three intervals of 15 seconds each. The homogenate is first centrifuged at 2000 rpm on a tabletop low speed centrifuge for 10 minutes. The supernatant, after passing through a cell strainer, is then re-centrifuged at 50,000×g for 25 minutes at 4° C. The pellet is resuspended into buffer B (15% glycerol, 20 mM HEPES, pH 7.4, 0.1 mM EDTA, EDTA-free complete protease inhibitor cocktail [1 tablet/10 ml]). Protein concentration of the prep is determined using the BCA Protein Assay kit (Pierce) using BSA as standard. The membranes are aliquoted and kept frozen at −80° C.
Solutions of test compounds ranging from 10 mM to 0.01 nM are prepared in DMSO. S1P is diluted in 4% BSA solution as positive controls. […]

[1] = tested on: EDG-3, EDG-5, EDG-6 and EDG-8; experiment: EDG-3, -5, -6 and -8 GTP [γ-35S] binding assays (selectivity versus EDG-1); assay type: biochemical, human
Description: as §1
For each membrane preparation, titration experiments are first run with S1P control to determine the optimal amount of membranes to be added per assay well. […] For example, 3-[6-(4-cyclohexyl-3-trifluoromethyl-benzyloxy)-3,4-dihydro-1H-isoquinolin-2-yl]-propionic acid (compound 9) has an EC50 of 0.2 nM in the above assay and is at least 1000 fold selective for EDG-1 compared to one or more of the other receptors including EDG-3, EDG-5, EDG-6 and EDG-8.

With O=C(O)CCN1CCc2cc(OCc3ccc(C4CCCCC4)c(C(F)(F)F)c3)ccc2C1 [Compound 9, 3-[6-(4-cyclohexyl-3-trifluoromethyl-benzyloxy)-3,4-dihydro-1H-isoquinolin-2-yl]-propionic acid] the ED50 (blood lymphocytes) was 0.2 mg/kg, the EC50 (human EDG-1) was 0.2 nM and the “selectivity for EDG-1 compared to one or more of EDG-3, EDG-5, EDG-6 and EDG-8” value [1] was “at least 1000 fold”.
